Assay results as given in patent publication US8697898B2, “Medical application of lipid derivatives of dopamine and the methods of their production” (Instytut Medycyny Doswiadczalnej i Klinicznej im. M. …, priority 2011, dated 2014).

What was measured:
[1] = system: awake Wistar rats; assay: Respiration in normoxia and hypoxia in the awake rat (plethysmographic chamber); format: in vivo; conditions: for minute lung ventilation after administration of haloperidol and N-oleoyl-dopamine: haloperidol 0.9 mg/kg i.p. prior to N-oleoyl-dopamine 40 mg/kg i.p.
Procedure: The study was performed in awake Wistar rats in a computerized plethysmographic chamber for small rodents. Respiratory frequency, tidal volume and pulmonary ventilation were measured. The experimental protocol included recordings in normoxia (breathing with atmospheric air), two levels of hypoxic stimulus (8% and 12% O2 in N2), intraperitoneal (i.p.) administration of N-oleoyl-dopamine (in a dose of 40 mg/kg) and repeated recordings for both normoxic and hypoxic states. Additionally, further experiments with the dopamine receptor antagonist haloperidol (in a dose of 0.9 mg/kg, i.p.) were performed. In those experiments, haloperidol was administered prior to N-oleoyl-dopamine and the recordings according the above-mentioned protocol were repeated.
The study was performed in awake Wistar rats in a computerized plethysmographic chamber for small rodents. Respiratory frequency, tidal volume and pulmonary ventilation were measured. The experimental protocol included recordings for normoxia (breathing with atmospheric air), for two levels of hypoxic stimulus (8% and 12% O2 in N2), intraperitoneal (i.p.) administration of 3′-O-methyl-N-oleoyl-dopamine (in a dose of 40 mg/kg), and then repeated recordings for both normoxic and hypoxic states.

[2] = system: rat model of Parkinson's disease
Procedure: Symptoms of the Parkinson's disease, particularly muscle rigidity during flexion and extension movements in the ankle joint, were induced with reserpine (2.5 mg/kg, i.p.) and a-methyl-tyrosine (α-MT, 250 mg/kg, i.p.) administered at a 16-h interval. Afterwards, 3′-O-methyl-N-oleoyl-dopamine (O-Me-OLDA) was administered at a dose of 10 mg/kg and the muscular tone was measured using electromyographic (EMG) techniques. The control groups consisted of a) only vehiculum-treated animals in which no symptoms of Parkinson's disease were induced (control), b) animals who received only 3′-O-methyl-N-oleoyl-dopamine (O-Me-OLDA) and c) animals in which symptoms of Parkinson's disease were induced (reserpine+α-MT), but no other treatment was introduced.
This method is a pharmacological tool for modeling the typical, dopamine-deficiency-related brain symptoms of Parkinson's disease in rats.

[3] = system: membrane system of the rat brain; assay: Binding to the rat brain membrane system after intraperitoneal administration (TLC of brain lipids); format: in vivo, Wistar rats; conditions: 20 mg/kg intraperitoneal
Procedure: N-oleoyl-dopamine was administered to Wistar rats at a dose of 20 mg/kg. After 1, 2, 3 or 24 hours the rat was sacrificed and the brain was resected. From the tissue, the whole lipid fraction, containing all lipids of the brain and the membrane fraction of the rat brain were obtained. Total lipids were obtained by homogenization of the brain in a mixture of chloroform and methanol 2:1 followed by an extraction of the water-soluble fractions and evaporation of the solvent. The membrane phase was obtained according to Xu et al. (Xu, 1998) and extracted with chloroform to obtain membrane lipids. All obtained samples were analyzed by the thin layer chromatography TLC on silica gel plates 60 using a mixture of chloroform and methanol 95:5 as the mobile phase and N-oleoyl-dopamine as the standard. The Retention Factor (Rf) for the N-oleoyl-dopamine standard was equal to 0.24-0.26. At the same level (the same Rf=0.24-0.29) there were bands corresponding to N-oleoyl-dopamine in the biological samples, that is after systemic N-oleoyl-dopamine injection, but not in the control samples obtained with no N-oleoyl-dopamine injection.

[4] = system: rat; conditions: cited from earlier work
[5] = after injection into the carotid artery; cited from earlier work
[6] = system: anesthetized, paralyzed and artificially ventilated Wistar rats; assay: Respiratory response to hypoxia in the anesthetized rat (integrated phrenic nerve activity); format: in vivo
Procedure: The study was performed in anesthetized, paralyzed and artificially ventilated Wistar rats. During the experiments, the integrated activity of the phrenic nerve was recorded. This activity reflects the frequency and tidal volume; their product represents the index of minute lung ventilation. The experimental protocol consisted of control recordings for two levels of the hypoxic stimulus: 14% and 11% O2 in N2. Afterwards, N-oleoyl-dopamine in a dose of 20 mg/kg was given and the recordings were repeated. Additionally, experiments with two dopamine receptor antagonists were performed: first, with the penetrating through the blood-brain barrier D2 dopamine receptor antagonist haloperidol and second, with the non-penetrating through the blood-brain-barrier domperidone. In these studies, after the control recordings, haloperidol (in a dose of 3 mg/kg) or domperidone (in a dose of 0.3 mg/kg) were administered and the recordings repeated. Then, N-oleoyl-dopamine was given and the recordings were repeated.

[7] = target: T1, catechol-O-methyltransferase (Homo sapiens, UniProt P21964); assay: O-methylation by catechol-O-methyltransferase in vitro; format: in vitro ADME; conditions: PBS pH=8, 10 mM magnesium ions, S-adenosyl-L-methionine, one hour at 37° C.
T1 sequence (P21964 1-271): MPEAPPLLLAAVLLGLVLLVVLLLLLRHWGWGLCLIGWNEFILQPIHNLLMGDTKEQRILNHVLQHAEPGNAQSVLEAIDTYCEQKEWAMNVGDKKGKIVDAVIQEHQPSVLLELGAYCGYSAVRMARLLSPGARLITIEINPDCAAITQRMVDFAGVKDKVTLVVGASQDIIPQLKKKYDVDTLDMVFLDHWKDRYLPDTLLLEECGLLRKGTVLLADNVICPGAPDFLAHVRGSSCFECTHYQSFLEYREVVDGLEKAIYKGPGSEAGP
Procedure: N-oleoyl-dopamine underwent the reaction of methylation with the catechol-O-methyltransferase in PBS buffer pH=8 with 10 mM magnesium ions as the co-factor and S-adenosyl-L-methionine as the donor of methyl groups. The reaction was conducted for one hour at 37° C. After the termination of the reaction, the reaction mixture was extracted with chloroform to obtain an organic and an aqueous phase. Both phases were analyzed using UV/VIS spectrophotometry and high performance liquid chromatography with mass detection (HPLC/MS). It was shown that the organic phase contained both N-oleoyl-dopamine and 3′-O-methyl-N-oleoyl-dopamine (the substrate and the product of the reaction, respectively), and the aqueous phase S-adenosyl-L-methionine and its demethylated derivative, S-adenosyl-L-homocystein (the substrate and the product of the reaction, respectively). The obtained results were additionally confirmed with the mass spectrometry (MS).

[8] = N-oleoyl-dopamine given after domperidone 0.3 mg/kg
[9] = N-oleoyl-dopamine given after haloperidol 3 mg/kg

Compound | peak respiratory response after administration ([1]; 8% hypoxia, 40 mg/kg i.p.) | resting ventilation during breathing with atmospheric oxygen after administration ([1]; normoxia, 40 mg/kg i.p.) | level of muscle tone elevated by reserpine (force needed for flexion and extension of the ankle joint) ([2]; 10 mg/kg, FIG. 1) | muscle rigidity in rats showing symptoms of Parkinson's disease ([2]; reserpine 2.5 mg/kg i.p. + α-MT 250 mg/kg i.p., compound 10 mg/kg) | penetration into the brain tissue [3] | minute lung ventilation after administration of haloperidol and N-oleoyl-dopamine ([1]; 8% hypoxia) | peak respiratory response after administration ([1]; 12% hypoxia, 40 mg/kg i.p.) | minute lung ventilation after administration of haloperidol and N-oleoyl-dopamine ([1]; 12% hypoxia) | peak respiratory response after N-oleoyl-dopamine under blockade of the dopaminergic system ([1]; haloperidol 0.9 mg/kg i.p. prior to N-oleoyl-dopamine) | locomotive activity [4] | ability to penetrate into the brain [5] | respiration in the inhibitory phase [6, 8] | response to hypoxia in the stimulatory phase [6, 8] | respiratory response in the first stimulatory phase [6, 9] | respiratory response in the second inhibitory phase [6, 9] | O-methylation by catechol-O-methyltransferase [7] | respiration in the second inhibitory phase of the hypoxic response ([6]; drug alone)
CCCCCCCC/C=C\CCCCCCCC(=O)NCCc1ccc(O)c(OC)c1 [3′-O-methyl-N-oleoyl-dopamine] | 1939±255 ml/min/kg body weight | 779.7±148.7 ml/min/kg body weight | decreases nearly down to the control level | abolished muscle rigidity |  |  |  |  |  |  |  |  |  |  |  |  | 
CCCCCCCC/C=C\CCCCCCCC(=O)NCCc1ccc(O)c(O)c1 [N-oleoyl-dopamine] | 1338.3±49.5 ml/min/kg body weight |  |  |  | penetrates | 1947.3±66.5 ml/min/kg body weight | 856.6±73.7 ml/min/kg body weight | 1484.0±92.3 ml/min/kg body weight | only a slight reduction | increases the locomotive activity | ability to penetrate into the brain | still diminished the respiration | did not change the response to hypoxia | did not restore the respiratory response | still diminished it | undergoes the O-methylation | 
O=C(CCCN1CCC(O)(c2ccc(Cl)cc2)CC1)c1ccc(F)cc1 [haloperidol, reference compound] |  |  |  |  |  |  |  |  |  |  |  |  |  |  |  |  | diminished the respiration
